Data taken from patent US7807841B2, “Spiro-containing compounds and compositions as modulators of steroid hormone nuclear receptors” (IRM LLC, priority 2005, dated 2010).

Tests used:
Androgen Receptor (AR) = biological target: T1, Androgen Receptor (AR) (Homo sapiens, UniProt P10275); assay: Functional assay of androgen receptor antagonism (MMTV luciferase reporter in MDA-kb2 cells); assay type: cell-based; conditions: antagonism of dihydrotestosterone (0.3 nM)-induced AR activity
T1 sequence (P10275 1-920 Q868H): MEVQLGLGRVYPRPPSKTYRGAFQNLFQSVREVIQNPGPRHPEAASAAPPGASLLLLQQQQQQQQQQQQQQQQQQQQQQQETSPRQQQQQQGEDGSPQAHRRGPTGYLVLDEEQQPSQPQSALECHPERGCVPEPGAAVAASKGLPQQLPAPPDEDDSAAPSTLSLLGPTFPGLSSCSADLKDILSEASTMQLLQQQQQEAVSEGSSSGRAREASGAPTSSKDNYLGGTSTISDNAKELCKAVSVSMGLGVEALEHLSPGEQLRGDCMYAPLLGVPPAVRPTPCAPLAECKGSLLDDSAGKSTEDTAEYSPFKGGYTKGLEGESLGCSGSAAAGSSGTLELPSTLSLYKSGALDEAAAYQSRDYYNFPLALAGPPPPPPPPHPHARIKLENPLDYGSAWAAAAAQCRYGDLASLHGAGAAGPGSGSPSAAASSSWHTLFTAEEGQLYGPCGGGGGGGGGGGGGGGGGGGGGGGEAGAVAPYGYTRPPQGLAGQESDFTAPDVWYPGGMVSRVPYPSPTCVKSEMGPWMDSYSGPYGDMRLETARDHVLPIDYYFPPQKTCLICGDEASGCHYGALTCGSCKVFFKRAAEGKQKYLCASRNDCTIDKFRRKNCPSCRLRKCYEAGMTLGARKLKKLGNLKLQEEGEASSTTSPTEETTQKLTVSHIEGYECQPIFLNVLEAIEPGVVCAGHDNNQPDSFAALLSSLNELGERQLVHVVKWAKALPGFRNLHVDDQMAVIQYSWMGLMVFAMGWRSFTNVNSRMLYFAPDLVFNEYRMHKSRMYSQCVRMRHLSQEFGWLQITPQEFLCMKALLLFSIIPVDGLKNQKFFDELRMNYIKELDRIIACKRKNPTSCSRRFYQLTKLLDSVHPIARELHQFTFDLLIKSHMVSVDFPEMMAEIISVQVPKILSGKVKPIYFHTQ
Protocol: The AR antagonist activity of the compounds is determined with the MDA-Kb2 cell line (ATCC), which stably expresses the MMTV luciferase reporter. The MMTV promoter is a mouse mammary tumor virus promoter that contains androgen receptor response elements. […] Upon stimulation with AR ligands, such as dihydrotestosterone, the MMTV luciferase reporter can be activated.
The assay is performed in 384 well plates. Briefly, MDA-kb2 cells are plated in 384 well plates at a density of approximately 2.4×10^4 cells/well in 50 μl medium. The medium is supplemented with 5% charcoal-dextran treated fetal bovine serum (Hyclone). Twenty four hours later, compounds prepared in DMSO are transferred to the cells. The cells are then stimulated with 0.3 nM final concentration of dihydrotestosterone (Sigma) and incubated at 37° C. for another 24 hours before the luciferase activity is assayed with 20 μl of Bright-Glo (Promega) using a luminometer (CLIPR). The expression of luciferase is used as an indicator of dihydrotestosterone-induced AR trans-activation. Each compound is tested in duplicates with a 12-concentration titration. IC50 values (defined as the concentration of test compound required to antagonize 50% of dihydrotestosterone-induced AR activity) are determined from the dose-response curve.

[1] = biological target: T2, Mineralocorticoid Receptor (MR) (Homo sapiens, UniProt P08235); assay: Functional assay of mineralocorticoid receptor antagonism (Gal4-MR mammalian two hybrid luciferase reporter, 293T cells); assay type: cell-based; conditions: antagonism of aldosterone (0.4 nM)-induced MR activity
T2 construct: expressed in transfected cells; host or cells: 293T cells (ATCC)
T2 sequence (P08235 672-984): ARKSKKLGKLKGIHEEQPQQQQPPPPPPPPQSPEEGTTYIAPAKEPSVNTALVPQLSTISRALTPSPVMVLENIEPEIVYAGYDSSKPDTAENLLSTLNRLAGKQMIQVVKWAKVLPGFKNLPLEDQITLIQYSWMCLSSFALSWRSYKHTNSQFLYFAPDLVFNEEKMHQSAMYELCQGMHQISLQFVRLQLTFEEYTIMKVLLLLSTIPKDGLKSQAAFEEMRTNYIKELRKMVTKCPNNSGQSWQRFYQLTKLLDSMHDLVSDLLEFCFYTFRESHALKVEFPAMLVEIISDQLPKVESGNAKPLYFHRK
Protocol: The MR antagonist activity of the compounds is determined in a mammalian two hybrid reporter system. The N-terminus of MR (MR-NT, sequence coding amino acid 1-597) is fused to the activation domain of the VP16 gene. The ligand binding domain of MR (MR-LBD, sequence encoding amino acid 672-984) is fused to the DNA binding domain of the yeast Gal4 gene. The MR gene is cloned from a human kidney cDNA library with PCR.
The assay is performed in 384 well plates. Briefly, 293T cells (ATCC) are transfected with expression vectors for Gal-4-MR-LBD and VP16-MR NT, and a luciferase reporter vector containing Gal4 binding sequence (pG5-Luc). Cells are plated in 384 well plates immediately after transfection (approximately 3×10^4 cells/well in 50 μl medium). The medium is supplemented with 3% charcoal-dextran treated fetal bovine serum (Hyclone). Twenty four hours after transfection, compounds prepared in DMSO are transferred to the cells. The cells are then stimulated with 0.4 nM final concentration of aldosterone (Acros) and incubated at 37° C. for another 24 hours before the luciferase activity is assayed with 20 μl of Bright-Glo (Promega) using a luminometer (CLIPR). The expression of luciferase is used as an indicator of aldosterone-induced MR trans-activation. Each compound is tested in duplicates with 12-concentration titration. IC50 values (defined as the concentration of test compound required to antagonize 50% of aldosterone-induced MR activity) are determined from the dose-response curve.

Structure (SMILES)	IC50 (Androgen Receptor (AR))	IC50 [1]
CC(=O)N1CC2(OC13CCCCC3)c1ccccc1C=Cc1ccccc12 [SOXS-6]	1000 to 10000 nM	100 to 1000 nM
COc1ccc(C23CCC(=O)N2CC2(O3)c3ccccc3C=Cc3ccccc32)cc1 (centres unmarked) [FRS-5]	> 10000 nM	100 to 1000 nM
CC(=O)N1CC2(OC1(C)C)c1ccccc1C=Cc1ccccc12 [SOXS-3]	1000 to 10000 nM	100 to 1000 nM
CC12CCCC(=O)N1CC1(O2)c2ccccc2C=Cc2ccccc21 (centres unmarked) [FRS-4]	> 10000 nM	100 to 1000 nM
O=C1CCC2(c3ccccc3)OC3(CN12)c1ccccc1C=Cc1ccccc13 (centres unmarked) [FRS-2]	100 to 1000 nM	100 to 1000 nM
O=C1CCCC2(C(F)(F)F)OC3(CN12)c1ccccc1C=Cc1ccccc13 (centres unmarked) [FRS-11]	100 to 1000 nM	< 100 nM
CC12CCC(=O)N1CC1(O2)c2ccccc2CCc2ccccc21 (centres unmarked) [FRS-13]	100 to 1000 nM	< 100 nM
Oc1ccc(C2=NCC3(O2)c2ccccc2C=Cc2ccccc23)cc1 [OXS-1]	1000 to 10000 nM	100 to 1000 nM
CC12CCC(=O)N1CC1(O2)c2ccccc2C=Cc2ccccc21 (centres unmarked) [FRS-1]	100 to 1000 nM	< 100 nM
O=C1CCC2(c3ccc(F)cc3)OC3(CN12)c1ccccc1C=Cc1ccccc13 (centres unmarked) [FRS-3]	1000 to 10000 nM	100 to 1000 nM
CC12CCC(=O)N1CC1(O2)c2ccccc2C=Cc2ccccc21 (single isomer, unassigned) [FRS-1 (Chiral Synthesis)]	100 to 1000 nM	< 100 nM
CCCC12CCC(=O)N1CC1(O2)c2ccccc2C=Cc2ccccc21 (centres unmarked) [FRS-9]	100 to 1000 nM	< 100 nM
CC12CCC(=O)N1CC1(O2)c2ccccc2CCc2ccccc21 (single isomer, unassigned) [FRS-13 (Chiral Synthesis)]	100 to 1000 nM	< 100 nM
O=C1CCC2(c3cccs3)OC3(CN12)c1ccccc1C=Cc1ccccc13 (centres unmarked) [FRS-8]	100 to 1000 nM	< 100 nM
CC1(C)OC2(CN1S(C)(=O)=O)c1ccccc1C=Cc1ccccc12 [SOXS-4]	1000 to 10000 nM	< 100 nM
O=C1CCC2(C3CC3)OC3(CN12)c1ccccc1C=Cc1ccccc13 (centres unmarked) [FRS-10]	100 to 1000 nM	< 100 nM
CC12CCCCC(=O)N1CC1(O2)c2ccccc2C=Cc2ccccc21 (centres unmarked) [FRS-6]	1000 to 10000 nM	100 to 1000 nM
CC1(C)OC2(CN1C(=O)Nc1ccc(F)cc1F)c1ccccc1C=Cc1ccccc12 [SOXS-1]	> 10000 nM	1000 to 10000 nM
CC12CCCC(=O)N1CC1(O2)c2ccccc2CCc2ccccc21 (centres unmarked) [FRS-14]	1000 to 10000 nM	100 to 1000 nM
